Assay [1] has as its system Cdc2 (Cdk1) tyrosine 15 phosphorylation in NCI-H1299 cells. Kind of assay: Cdc2 (Cdk1) tyrosine 15-phosphorylation-inhibitory effect in NCI-H1299 cells, camptothecin-treated (ELISA). Type of assay: cell-based. The following applies: Homo sapiens, 200 nM camptothecin 16 hours, then test compound with nocodazole 8 hours, read-out: Cdc2-Y15 Phosphorylation-Inhibitory Effect (H1299, +camptothecin) (EC50). An excerpt:
Pharmacological Test 2 (Method of Determining Drug Potency with Cells (Cdc2 (Cdk1) Tyrosine 15-Phosphorylation-Inhibitory Effect))
Fetal bovine serum (FBS) was gotten from Morgate; media RPMI1640 and DMEM were from Invitrogen; camptothecin was from Sigma; gemcitabine was from Nippon Eli Lilly; nocodazole and protease inhibitor cocktail were from Sigma; rabbit anti-Cdc2 antibody and mouse anti-Cdc2 antibody were from Santa Cruz Biotechnology; rabbit anti-tyrosine 15-phosphorylated Cdc2 antibody and horseradish peroxidase-labeled anti-mouse IgG antibody were from Cell Signaling Technology; sure blue reserve TMB peroxidase substrate was from Kirkegaard and Perry Laboratories.
Human non-small cell lung cancer cells (NCI-H1299) and human colon cancer cells (WiDr) were gotten from American Type Culture Collection (ATCC).
In the method of using NCI-H1299 cells, the cells were suspended in a medium of 10% FBS-added RPMI1640, and the cell suspension was applied to a 96-well Nunclondelta-processed plastic plate (bought from Nunc), in an amount of 2000 cells/100 μL/well, in which the cells were incubated overnight in 5% CO2-95% air at 37° C. Camptothecin was dissolved in dimethyl sulfoxide (DMSO), and diluted with a medium of 10% FBS-added RPMI1640, and then this was applied to the plate on which the cells had been previously sowed, in an amount of 50 μL/well in such a manner that the final concentration of camptothecin could be 200 nM. Then, the cells were incubated for 16 hours at 37° C. in 5% CO2-95% air. A test compound was stepwise diluted with DMSO, then diluted with 4000 nM nocodazole-containing, 10% FBS-added RPMI1640, and applied to the plate on which the camptothecin-treated cells had been sowed, in an amount of 50 μL/well. […] Cdc2 was determined through ELISA as follows: A rabbit anti-Cdc2 antibody solution, which had been diluted 200-fold with 50 mM carbonate-bicarbonate buffer (pH 9.6), was applied to a 96-well maxisorpimmuno plate (bought from Nunc), in an amount of 50 μL/well, and statically kept overnight at 4° C. so as to fix the antibody on the plate. […]

For a further assay, the target named is T1, Wee1 kinase (Homo sapiens, UniProt P30291).
T1 construct: made in house; host or cells: Sf9 insect cells (recombinant baculovirus)
T1 sequence (P30291 whole entry): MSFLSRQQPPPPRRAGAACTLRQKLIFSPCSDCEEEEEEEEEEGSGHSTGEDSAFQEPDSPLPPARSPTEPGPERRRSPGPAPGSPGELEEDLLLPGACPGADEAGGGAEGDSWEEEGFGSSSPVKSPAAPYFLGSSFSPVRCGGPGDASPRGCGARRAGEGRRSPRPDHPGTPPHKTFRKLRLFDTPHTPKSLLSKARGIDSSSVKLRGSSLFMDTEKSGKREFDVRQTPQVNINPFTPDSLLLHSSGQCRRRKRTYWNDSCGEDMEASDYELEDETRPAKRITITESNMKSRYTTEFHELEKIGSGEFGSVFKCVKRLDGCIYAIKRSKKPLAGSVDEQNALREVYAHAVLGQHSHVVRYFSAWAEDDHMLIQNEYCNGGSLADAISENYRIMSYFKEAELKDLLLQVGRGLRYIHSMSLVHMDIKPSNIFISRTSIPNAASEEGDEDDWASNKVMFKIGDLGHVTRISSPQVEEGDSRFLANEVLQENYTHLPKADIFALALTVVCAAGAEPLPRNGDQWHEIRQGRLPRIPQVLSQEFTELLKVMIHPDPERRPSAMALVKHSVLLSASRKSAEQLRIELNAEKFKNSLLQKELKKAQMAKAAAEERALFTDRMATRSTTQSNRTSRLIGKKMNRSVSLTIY
Kind of assay: Wee1 kinase-inhibitory effect (33P-ATP filter assay with GST-tagged Wee1). The following applies: purified GST-Wee1, Poly(Lys,Tyr) substrate, 10 μM ATP, 30° C. for 30 minutes; read-out: Weel-Inhibitory Effect (IC50). The class given is biochemical. From the text:
Pharmacological Test 1 (Wee1 Kinase-Inhibitory Effect)
(1) Purification of Wee1 Kinase:
A cDNA of Wee1 kinase with glutathion-S-transferase (GST) fused at the amino terminal thereof was inserted into a baculovirus expression vector to construct a recombinant baculovirus, with which cells of an insect cell line Sf9 were infected for high expression therein. The infected cells were collected and solubilized, and then the GST-tagged Wee1 kinase protein was adsorbed by a glutathion column, and eluted from the column with glutathion, and the active fraction was desalted in a desalting column to give a purified enzyme.
(2) Determination of Wee1 Kinase Activity:
In determination of the Wee1 kinase activity, a synthetic peptide, Poly(Lys,Tyr) Hydrobromide (Lys:Tyr (4:1)) bought from Sigma was used as the substrate.
The amount of the reaction liquid was 21.1 μL; and the composition of the reaction buffer was 50 mM Tris-HCl buffer (pH 7.4)/10 mM magnesium chloride/1 mM dithiothreitol. The purified Wee1 kinase, 2.5 μg of the substrate peptide, 10 μM of non-labeled adenosine triphosphate (ATP) and 1 μCi of [γ-^33P]-labeled ATP (2500 Ci/mmol or more) were added to it, and reacted at 30° C. for 30 minutes. Next, 10 μL of 350 mM phosphate buffer was added to the reaction system to stop the reaction. The substrate peptide was adsorbed by a P81 paper filter 96-well plate, then washed a few times with 130 mM phosphate buffer, and its radioactivity was counted with a liquid scintillation counter. The [γ-^33P]-labeled ATP was bought from Amersham Bioscience.
To add a test compound to the reaction system, the compound was diluted with dimethyl sulfoxide (DMSO) to prepare a series of dilutions. 1.1 μL of each dilution was added to the reaction system. As a control, 1.1 μL of DMSO was added to the reaction system.

Experimental findings from patent publication US8329711B2, “Pyridone-substituted-dihydropyrazolopyrimidinone derivative” (MSD K.K., priority 2007, dated 2012) are described below.

The EC50 is the concentration that produces a half-maximal response. As a reminder, the IC50 is the concentration at which inhibition is half-maximal. As to `C=CCn1c(=O)c2cnc(Nc3ccc(N4CCN(C)CC4)cc3)nc2n1-c1cccc(-n2ccccc2=O)n1` [Example 1, 6′-(2-allyl-6-{[4-(4-methylpiperazin-1-yl)phenyl]amino}-3-oxo-2,3-dihydro-1H-pyrazolo[3,4-d]pyrimidin-1-yl)-2H-1,2′-bipyridin-2-one], in assay [1], the 50% effective concentration (EC50) stood at 190 nM. For the same compound, the IC50 at Wee1 kinase turned out to be 16 nM.

As for `C=CCn1c(=O)c2cnc(Nc3ccc(N4CCN(C)CC4)cc3)nc2n1-c1cccc(-n2cc(F)ccc2=O)n1` [Example 5, 6′-(2-allyl-6-{[4-(4-methylpiperazin-1-yl)phenyl]amino}-3-oxo-2,3-dihydro-1H-pyrazolo[3,4-d]pyrimidin-1-yl)-5-fluoro-2H-1,2′-bipyridin-2-one], the EC50 in assay [1] amounted to 260 nM. Moreover, the half-inhibitory concentration (IC50) at Wee1 kinase worked out at 18 nM.

With `C=CCn1c(=O)c2cnc(Nc3ccc4c(c3)CN(C)CC4)nc2n1-c1cccc(-n2ccccc2=O)n1` [Example 30, 6′-{2-Allyl-6-[(2-methyl-1,2,3,4-tetrahydroisoquinolin-7-yl)amino]-3-oxo-2,3-dihydro-1H-pyrazolo[3,4-d]pyrimidin-1-yl}-2H-1,2′-bipyridin-2-one], the half-maximal effective concentration (EC50) in assay [1] was determined as 180 nM. Also, the IC50 on Wee1 kinase was found to be 17.9 nM.
